Test results reported in patent US9839681B1, “Size tunable microbial mimetics for immunotherapy of cancer” (priority 2017, dated 2017).

System: Human peripheral blood mononuclear cells (PBMCs)
Experiment: Induced cytokine secretion by PBMCs exposed for 24 hours, ELISA
Type: cell-based
Conditions: 25 μg/mL, 24 hours, 300,000 PBMCs per well
Procedure: FIG. 10 is bar graph showing the induced secretion of IL-6 by PBMCs exposed to PolyIC, RNA248, DNA4, DNA10, PolyIC complexed with SEQ. ID NO. 4 (CAL2), RNA248 complexed with SEQ. ID NO. 4, DNA4 complexed with SEQ. ID NO. 4, DNA10 complexed with SEQ. ID NO. 4, DNA4 and RNA248 complexed with SEQ. ID NO. 4, Pam(2)CSK4-conjugated SEQ. ID NO. 4 complexed with DNA4 and SEQ. ID NO. 4 alone. Each well contained ˜300,000 fresh PBMCs in a total volume of 100 μL of RPMI medium. Solutions of SEQ. ID NO. 4, PolyIC, DNA4, DNA10, Pam(2)CSK4-conjugated SEQ. ID NO. 4 were all pre-mixed to concentrations of 50 ug/mL (for each peptide reagent) and then added to wells in volumes of 100 uL, such that each well contained a 200 uL volume of PBMCs and reagents. Wells were run in triplicate and the mean value is indicated.
A series of in vitro experiments was conducted to characterize the immune-stimulating properties of the MM and their sub-components. Human peripheral blood mononuclear cells (PBMCs) were exposed to a MM containing SEQ. ID NO. 4 and its individual molecular sub-components for 24 hours. For reference, the PBMCs were separately exposed to PolyIC. After this time, the induced secretion of following cytokines by PBMCs was measured: interleukin-6 (IL-6), interleukin-10 (IL-10), interleukin-12 (IL-12), interleukin-15 (IL-15), tumor necrosis factor alpha (TNF-alpha), interferon-alpha (IFN-alpha), and interferon-gamma (IFN-gamma). Experiments were conducted as follows. 150 mL of blood was supplied by a human volunteer and PBMCs were isolated by Ficoll-Paque gradient centrifugation immediately after venipuncture. PBMCs were incubated for 24 hours at 37° C./5% CO2 in 96-well plates, with 300,000 PBMCs per well in a 200 μL medium containing 49% RPMI-1640/49% PBS/1% L-glutamine/1% penicillin-streptomycin and the components in Table 3 at a concentration of 25 μg/mL. All cytokines were measured in triplicate.
After 24 hours, the supernatant from each well was isolated using centrifugation at 3000 g and immediately thereafter cytokines were measured using ELISA kits from Genway Biotech (San Diego, Calif.) and Origene (Rockville, Md.). Per ELISA kit instructions, 100 μL of supernatant was used for each readout. The results are provided in FIGS. 10-16, where the mean of each measurement is provided. (In no instance did the standard deviation exceed 30%.)

Substance	cytokine secretion overall (seven cytokines measured)	induced secretion of IFN-alpha	induced secretion of IL-12	induced secretion of IL-15
5′-TCGTCGGTTTCGGCGCGCGCCG-3′ (DNA, all phosphorothioate, methylation of C not given here) [DNA4]	minimal cytokine secretion	somewhat immunogenic	does not induce secretion of high amounts	does not induce secretion of high amounts
5′-TTCGGCGCGCGCGCGCGCGCGCCGTT-3′ (DNA, all phosphorothioate, methylation of C not given here) [DNA10]	minimal cytokine secretion	–	–	–
5′-guuggugguugugugagcgu-3′ (GUUGGUGGUUGUGUGAGCGU; listed as RNA, chemistry not fully specified) [RNA248]	minimal cytokine secretion	–	–	–
RRHRKRRLSTCMLGTYTQDFNKFHTFPQTAI (Linker Sequence + synthetic peptide corresponding to calcitonin) [CAL2]	very minimal cytokine secretion	–	–	–
